Assay results as given in PubChem BioAssay AID1918956 (Molecular Pharmacology Branch, DTP, NCI, 2023).
Where “and” joins values, the source holds several entries; their conditions need not be identical. Identical values can stand only once.

System: OVCAR-5 complex spheroids, viability
Test: Anticancer human tumor OVCAR-5 cell line growth inhibition;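 note: spheroids exposed to agents for seven days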;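 for viability, T/C: 100% = DMSO vehicle control wells viability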
Details: for viability, T/C: stronger effect = lower value
Outline: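 Drug combinations with the LSD1 inhibitor iadademstat tested on tumor cells co-cultured as spheroids with endothelial cells and mesenchymal stem cells. Concentrations descended in half-log increments from clinical Cmax or 10 microM.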

[1] = curve of first compound, second compound 0.1 µM
[2] = curve of first compound, second compound 0.316 µM
[3] = curve of first compound, second compound 1 µM
[4] = curve of first compound, second compound 3.16 µM
[5] = curve of first compound, second compound 10 µM

Cn1ncnc1C1c2n[nH]c(=O)c3cc(F)cc(c23)NC1c1ccc(F)cc1 (configuration not stated) + NC1CC1c1ccc(-c2cccc(O)c2)cc1
IC50 [1]: > 100 nM | IC50 [2]: > 100 nM | IC50 [3]: > 100 nM | IC50 [4]: > 100 nM | IC50 [5]: > 100 nM | viability, T/C (second compound 0.1 µM, first compound 0.000316 µM): 101% | viability, T/C (second compound 0.1 µM, first compound 0.001 µM): 94.1% | viability, T/C (second compound 0.1 µM, first compound 0.00316 µM): 85.4% | viability, T/C (second compound 0.1 µM, first compound 0.01 µM): 95.3% | viability, T/C (second compound 0.1 µM, first compound 0.0316 µM): 83.2% | viability, T/C (second compound 0.1 µM, first compound 0.1 µM): 77.8% | viability, T/C (second compound 0.316 µM, first compound 0.000316 µM): 94.6% | viability, T/C (second compound 0.316 µM, first compound 0.001 µM): 99.3% | viability, T/C (second compound 0.316 µM, first compound 0.00316 µM): 95.1% | viability, T/C (second compound 0.316 µM, first compound 0.01 µM): 89.9% | viability, T/C (second compound 0.316 µM, first compound 0.0316 µM): 93% | viability, T/C (second compound 0.316 µM, first compound 0.1 µM): 91.9% | viability, T/C (second compound 1 µM, first compound 0.000316 µM): 81.3% | viability, T/C (second compound 1 µM, first compound 0.001 µM): 91.4% | viability, T/C (second compound 1 µM, first compound 0.00316 µM): 89.7% | viability, T/C (second compound 1 µM, first compound 0.01 µM): 79.5% | viability, T/C (second compound 1 µM, first compound 0.0316 µM): 92.8% | viability, T/C (second compound 1 µM, first compound 0.1 µM): 85.6% | viability, T/C (second compound 3.16 µM, first compound 0.000316 µM): 88.4% | viability, T/C (second compound 3.16 µM, first compound 0.001 µM): 94.2% | viability, T/C (second compound 3.16 µM, first compound 0.00316 µM): 88.1% | viability, T/C (second compound 3.16 µM, first compound 0.01 µM): 81.9% | viability, T/C (second compound 3.16 µM, first compound 0.0316 µM): 74.3% | viability, T/C (second compound 3.16 µM, first compound 0.1 µM): 73.2% | viability, T/C (second compound 10 µM, first compound 0.000316 µM): 82.6% | viability, T/C (second compound 10 µM, first compound 0.001 µM): 96.6% | viability, T/C (second compound 10 µM, first compound 0.00316 µM): 85.5% | viability, T/C (second compound 10 µM, first compound 0.01 µM): 78.2% | viability, T/C (second compound 10 µM, first compound 0.0316 µM): 72.6% | viability, T/C (second compound 10 µM, first compound 0.1 µM): 80.3%

NS(=O)(=O)OCC1CC(n2ccc3c(NC4CCc5ccccc54)ncnc32)CC1O (configuration not stated)
viability, T/C (compound 0.00949 µM): 105% and 120% | viability, T/C (compound 0.03 µM): 102% and 114% | viability, T/C (compound 0.0949 µM): 82.6% and 75.8% | viability, T/C (compound 0.3 µM): 37.4% and 25.6% | viability, T/C (compound 0.949 µM): 16.1% and 7.66% | viability, T/C (compound 3 µM): 9.41% and 4.92% | IC50 (curve of compound): 219 nM and 172 nM

COc1cc(C2c3cc4c(cc3C(OC3OC5COC(C)OC5C(O)C3O)C3COC(=O)C23)OCO4)cc(OC)c1O (configuration not stated) + NC1CCC(NC2CC2c2ccccc2)CC1
IC50 [1]: 836 nM | IC50 [2]: 763 nM | IC50 [3]: 890 nM | IC50 [4]: 737 nM | IC50 [5]: 712 nM | viability, T/C (second compound 0.1 µM, first compound 0.00949 µM): 113% | viability, T/C (second compound 0.1 µM, first compound 0.03 µM): 105% | viability, T/C (second compound 0.1 µM, first compound 0.0949 µM): 100% | viability, T/C (second compound 0.1 µM, first compound 0.3 µM): 73.5% | viability, T/C (second compound 0.1 µM, first compound 0.949 µM): 45.6% | viability, T/C (second compound 0.1 µM, first compound 3 µM): 41.4% | viability, T/C (second compound 0.316 µM, first compound 0.00949 µM): 106% | viability, T/C (second compound 0.316 µM, first compound 0.03 µM): 106% | viability, T/C (second compound 0.316 µM, first compound 0.0949 µM): 100% | viability, T/C (second compound 0.316 µM, first compound 0.3 µM): 71% | viability, T/C (second compound 0.316 µM, first compound 0.949 µM): 43.6% | viability, T/C (second compound 0.316 µM, first compound 3 µM): 43.9% | viability, T/C (second compound 1 µM, first compound 0.00949 µM): 98.7% | viability, T/C (second compound 1 µM, first compound 0.03 µM): 106% | viability, T/C (second compound 1 µM, first compound 0.0949 µM): 103% | viability, T/C (second compound 1 µM, first compound 0.3 µM): 76.7% | viability, T/C (second compound 1 µM, first compound 0.949 µM): 50% | viability, T/C (second compound 1 µM, first compound 3 µM): 44.2% | viability, T/C (second compound 3.16 µM, first compound 0.00949 µM): 99.9% | viability, T/C (second compound 3.16 µM, first compound 0.03 µM): 105% | viability, T/C (second compound 3.16 µM, first compound 0.0949 µM): 103% | viability, T/C (second compound 3.16 µM, first compound 0.3 µM): 70.9% | viability, T/C (second compound 3.16 µM, first compound 0.949 µM): 42.8% | viability, T/C (second compound 3.16 µM, first compound 3 µM): 45.4% | viability, T/C (second compound 10 µM, first compound 0.00949 µM): 89.4% | viability, T/C (second compound 10 µM, first compound 0.03 µM): 93% | viability, T/C (second compound 10 µM, first compound 0.0949 µM): 82.9% | viability, T/C (second compound 10 µM, first compound 0.3 µM): 67.7% | viability, T/C (second compound 10 µM, first compound 0.949 µM): 42.5% | viability, T/C (second compound 10 µM, first compound 3 µM): 40.9%
